From US8148373B2, “Compounds” (AstraZeneca AB, priority 2008, dated 2012)

Tests used:
[1] = molecular target: T1, Adrenergic β2 (H292 cells) (Homo sapiens, UniProt P07550); test: Assay for Adrenergic β2 Mediated cAMP Production (concentration response, AlphaScreen cAMP detection); type: cell-based; settings: for EC50: cAMP production, 60 minutes at room temperature, 300 μM rolipram, read-out: β2 pEC50 (converted); for β2 Intrinsic activity: fraction relative to the maximum activity determined for formoterol
T1 construct: endogenous in cells; host or cells: H292 cells
Outline: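 Intrinsic activity is relative to the per-experiment formoterol maximum, with pEC50 from a four-parameter logistic fit of cAMP levels quantified by AlphaScreen against standards. Cells (H292) got 300 μM rolipram for 10 min, then compound for 60 min at room temperature, 1% DMSO final.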

[2] = molecular target: T2, human muscarinic acetylcholine M3 receptor (M3-ACh) (Homo sapiens, UniProt P20309); test: Muscarinic 3 Receptor Binding Assay ([3H]NMS competition, SPA); settings: [3H]NMS 0.1 nM, CHO-K1 cell membranes, 16 hours at room temperature; read-out: M3 pIC50 (converted)
T2 construct: expressed in transfected cells; host or cells: CHO-K1 (Chinese Hamster Ovary) cell membranes
Outline: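 Competition SPA binding of 0.1 nM [3H]NMS (quarter Kd) to membranes from CHO-K1 cells expressing human M3, in 20 mM HEPES pH 7.4, 5 mM MgCl2, 1% DMSO. Incubated 16 h at room temperature; non-specific binding with 1 µM atropine. pIC50 from 50% reduction of specific binding.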

[3] = molecular target: T1, Adrenergic β2 (H292 cells); test: Adrenergic β2 Mediated cAMP Production, single concentration 1 μM; type: cell-based; settings: NCI-H292, 1 μM compound, percentage of the maximum response generated by 1E-07M formoterol, read-out: β2 (% effect at 1 μM)
Outline: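 cAMP was quantified by AlphaScreen in lysates of H292 cells and reported as a percentage of the 1E-07M formoterol maximum. Before lysis the cells, seeded the previous day, received rolipram (300 μM final) and then test compound at a final 1 μM in 1% DMSO for 60 min at room temperature.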

[4] = molecular target: T2, human muscarinic acetylcholine M3 receptor (M3-ACh); test: Muscarinic 3 Receptor Binding Assay, % inhibition specific binding at 1 μM; settings: 1 μM compound, % inhibition specific [3H]-NMS binding
Outline: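 Value is % inhibition of specific [3H]N-methyl scopolamine binding (0.1 nM, quarter Kd) by 1 μM compound, using SPA beads precoated with human M3-expressing CHO-K1 membranes. Buffer HEPES pH 7.4 with MgCl2 and 1% DMSO; 16 h at room temperature; 1 μM atropine sets non-specific binding.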

T2 sequence (P20309 whole entry): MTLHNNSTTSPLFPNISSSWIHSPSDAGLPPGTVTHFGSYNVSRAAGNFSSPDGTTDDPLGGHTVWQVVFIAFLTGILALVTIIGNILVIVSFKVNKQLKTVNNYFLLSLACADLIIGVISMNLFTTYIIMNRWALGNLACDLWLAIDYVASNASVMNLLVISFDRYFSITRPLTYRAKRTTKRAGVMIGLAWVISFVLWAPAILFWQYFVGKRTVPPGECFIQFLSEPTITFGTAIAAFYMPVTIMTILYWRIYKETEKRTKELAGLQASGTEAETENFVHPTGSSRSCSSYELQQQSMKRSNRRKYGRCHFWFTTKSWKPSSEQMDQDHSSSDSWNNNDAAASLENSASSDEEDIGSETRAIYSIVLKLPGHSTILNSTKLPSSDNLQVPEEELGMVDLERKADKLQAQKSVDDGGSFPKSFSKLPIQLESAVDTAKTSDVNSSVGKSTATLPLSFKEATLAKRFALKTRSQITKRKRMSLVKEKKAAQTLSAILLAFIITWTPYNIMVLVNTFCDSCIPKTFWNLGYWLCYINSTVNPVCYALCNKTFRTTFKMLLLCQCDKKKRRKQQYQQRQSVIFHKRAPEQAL
T1 sequence (P07550 whole entry): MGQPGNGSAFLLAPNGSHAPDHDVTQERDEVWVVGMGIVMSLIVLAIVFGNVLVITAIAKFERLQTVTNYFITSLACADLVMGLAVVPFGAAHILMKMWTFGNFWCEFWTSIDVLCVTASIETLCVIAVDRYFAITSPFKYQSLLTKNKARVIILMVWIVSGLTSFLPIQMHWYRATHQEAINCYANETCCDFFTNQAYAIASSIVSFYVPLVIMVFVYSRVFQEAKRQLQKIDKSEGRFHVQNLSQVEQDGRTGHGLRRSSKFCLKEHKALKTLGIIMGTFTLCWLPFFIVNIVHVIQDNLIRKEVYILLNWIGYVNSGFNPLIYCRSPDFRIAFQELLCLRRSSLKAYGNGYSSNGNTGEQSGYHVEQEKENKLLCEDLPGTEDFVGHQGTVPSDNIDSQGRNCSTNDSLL

In the case of `Cc1nc(C(=O)N2CCOC3(CCN(CCCCCCCCCNC[C@H](O)c4ccc(O)c5[nH]c(=O)sc45)CC3)C2)c(C)s1` [Example 201, (R)-7-(2-(9-(4-(2,5-dimethylthiazole-4-carbonyl)-1-oxa-4,9-diazaspiro[5.5]undecan-9-yl)nonylamino)-1-hydroxyethyl)-4-hydroxybenzo[d]thiazol-2(3H)-one], the EC50 [1] is reported as 31.6 nM, the “β2 Intrinsic activity” value [1] is reported as 0.9 and the IC50 [2] is reported as 6.31 nM. It also gave an activation at 1 µM [3] of 105% and an inhibition at 1 µM [4] of 98%.

With `O=C(c1ccc2c(c1)CCO2)N1CCOC2(CCN(Cc3cc(F)cc(CCNC[C@H](O)c4ccc(O)c5[nH]c(=O)sc45)c3)CC2)C1` [Example 149, (R)-7-(2-(3-((4-(2,3-dihydrobenzofuran-5-carbonyl)-1-oxa-4,9-diazaspiro[5.5]undecan-9-yl)methyl)-5-fluorophenethylamino)-1-hydroxyethyl)-4-hydroxybenzo[d]thiazol-2(3H)-one] the EC50 [1] was 7.94 nM, the “β2 Intrinsic activity” value [1] was 0.9 and the IC50 [2] was 25.1 nM. It also gave an activation at 1 µM [3] of 113% and an inhibition at 1 µM [4] of 92%.

In the case of `Cc1nc(CC(=O)N2CCOC3(CCN(CCCCCCCCCNC[C@H](O)c4ccc(O)c5[nH]c(=O)sc45)CC3)C2)cs1` [Example 210, (R)-4-hydroxy-7-(1-hydroxy-2-(9-(4-(2-(2-methylthiazol-4-yl)acetyl)-1-oxa-4,9-diazaspiro[5.5]undecan-9-yl)nonylamino)ethyl)benzo[d]thiazol-2(3H)-one], the EC50 [1] is reported as 15.8 nM, the “β2 Intrinsic activity” value [1] is reported as 0.8 and the IC50 [2] is reported as 7.94 nM. For the same compound, the activation at 1 µM [3] was 92% and the inhibition at 1 µM [4] was 95%.

For `O=C(c1ccc2occc2c1)N1CCOC2(CCN(Cc3cc(F)cc(CCNC[C@H](O)c4ccc(O)c5[nH]c(=O)sc45)c3)CC2)C1` [Example 173, (R)-7-(2-(3-((4-(benzofuran-5-carbonyl)-1-oxa-4,9-diazaspiro[5.5]undecan-9-yl)methyl)-5-fluorophenethylamino)-1-hydroxyethyl)-4-hydroxybenzo[d]thiazol-2(3H)-one], the EC50 [1] was 2.51 nM, the “β2 Intrinsic activity” value [1] was 0.8 and the IC50 [2] was 7.94 nM. It also gave an activation at 1 µM [3] of 93% and an inhibition at 1 µM [4] of 99%.

For `Cc1cc(C(=O)N2CCOC3(CCN(CCCCCCCCCNC[C@H](O)c4ccc(O)c5[nH]c(=O)sc45)CC3)C2)c(C)s1` [Example 202, (R)-7-(2-(9-(4-(2,5-dimethylthiophene-3-carbonyl)-1-oxa-4,9-diazaspiro[5.5]undecan-9-yl)nonylamino)-1-hydroxyethyl)-4-hydroxybenzo[d]thiazol-2(3H)-one], the EC50 [1] was 20 nM, the “β2 Intrinsic activity” value [1] was 0.9 and the IC50 [2] was 7.94 nM. The activation at 1 µM [3] was 98% and the inhibition at 1 µM [4] was 99%.

With `O=C(c1csc(C2CC2)n1)N1CCOC2(CCN(CCCCCCCCCNC[C@H](O)c3ccc(O)c4[nH]c(=O)sc34)CC2)C1` [Example 218, (R)-7-(2-(9-(4-(2-cyclopropylthiazole-4-carbonyl)-1-oxa-4,9-diazaspiro[5.5]undecan-9-yl)nonylamino)-1-hydroxyethyl)-4-hydroxybenzo[d]thiazol-2(3H)-one] the EC50 [1] was 25.1 nM, the “β2 Intrinsic activity” value [1] was 0.9 and the IC50 [2] was 0.398 nM. The activation at 1 µM [3] was 95% and the inhibition at 1 µM [4] was 100%.

In the case of `O=C(c1ccc2occc2c1)N1CCOC2(CCN(CCCCCCCCCNC[C@H](O)c3ccc(O)c4[nH]c(=O)sc34)CC2)C1` [Example 209, (R)-7-(2-(9-(4-(benzofuran-5-carbonyl)-1-oxa-4,9-diazaspiro[5.5]undecan-9-yl)nonylamino)-1-hydroxyethyl)-4-hydroxybenzo[d]thiazol-2(3H)-one], the EC50 [1] is reported as 25.1 nM, the “β2 Intrinsic activity” value [1] is reported as 0.9 and the IC50 [2] is reported as 2 nM. For the same compound, the activation at 1 µM [3] was 84% and the inhibition at 1 µM [4] was 99%.

In the case of `O=C(c1ccc(Cl)s1)N1CCOC2(CCN(Cc3cc(F)cc(CCNC[C@H](O)c4ccc(O)c5[nH]c(=O)sc45)c3)CC2)C1` [Example 124, (R)-7-(2-(3-((4-(5-chlorothiophene-2-carbonyl)-1-oxa-4,9-diazaspiro[5.5]undecan-9-yl)methyl)-5-fluorophenethylamino)-1-hydroxyethyl)-4-hydroxybenzo[d]thiazol-2(3H)-one], the EC50 [1] is reported as 3.98 nM, the “β2 Intrinsic activity” value [1] is reported as 0.9 and the IC50 [2] is reported as 12.6 nM. The activation at 1 µM [3] was 100% and the inhibition at 1 µM [4] was 97%.

With `O=C(c1csc(C(F)(F)F)n1)N1CCOC2(CCN(CCCCCCCCCNC[C@H](O)c3ccc(O)c4[nH]c(=O)sc34)CC2)C1` [Example 217, (R)-4-hydroxy-7-(1-hydroxy-2-(9-(4-(2-(trifluoromethyl)thiazole-4-carbonyl)-1-oxa-4,9-diazaspiro[5.5]undecan-9-yl)nonylamino)ethyl)benzo[d]thiazol-2(3H)-one] the EC50 [1] was 39.8 nM, the “β2 Intrinsic activity” value [1] was 0.9 and the IC50 [2] was 0.631 nM. It also gave an activation at 1 µM [3] of 103% and an inhibition at 1 µM [4] of 100%.

For `O=C(c1csc(C2CC2)n1)N1CCOC2(CCN(CCOc3ccc(CNC[C@H](O)c4ccc(O)c5[nH]c(=O)sc45)cc3)CC2)C1` [Example 259, (R)-7-(2-(4-(2-(4-(2-cyclopropylthiazole-4-carbonyl)-1-oxa-4,9-diazaspiro[5.5]undecan-9-yl)ethoxy)benzylamino)-1-hydroxyethyl)-4-hydroxy-benzo[d]thiazol-2(3H)-one], the EC50 [1] was 200 nM, the “β2 Intrinsic activity” value [1] was 0.9 and the IC50 [2] was 5.01 nM. The activation at 1 µM [3] was 68% and the inhibition at 1 µM [4] was 99%.

`O=C(c1csc(C2CCC2)n1)N1CCOC2(CCN(CCCCCCCCCNC[C@H](O)c3ccc(O)c4[nH]c(=O)sc34)CC2)C1` [Example 220, (R)-7-(2-(9-(4-(2-cyclobutylthiazole-4-carbonyl)-1-oxa-4,9-diazaspiro[5.5]undecan-9-yl)nonylamino)-1-hydroxyethyl)-4-hydroxybenzo[d]thiazol-2(3H)-one] was tested, and the EC50 [1] was 25.1 nM, the “β2 Intrinsic activity” value [1] was 0.8 and the IC50 [2] was 0.631 nM. The activation at 1 µM [3] was 109% and the inhibition at 1 µM [4] was 100%.

`Cc1csc(C(=O)N2CCOC3(CCN(CCCCCCCCCNC[C@H](O)c4ccc(O)c5[nH]c(=O)sc45)CC3)C2)c1` [Example 213, (R)-4-hydroxy-7-(1-hydroxy-2-(9-(4-(4-methylthiophene-2-carbonyl)-1-oxa-4,9-diazaspiro[5.5]undecan-9-yl)nonylamino)ethyl)benzo[d]thiazol-2(3H)-one] was tested, and the EC50 [1] was 12.6 nM, the “β2 Intrinsic activity” value [1] was 0.8 and the IC50 [2] was 0.794 nM. It also gave an activation at 1 µM [3] of 87% and an inhibition at 1 µM [4] of 99%.

`CCCc1nc(C(=O)N2CCOC3(CCN(CCCCCCCCCNC[C@H](O)c4ccc(O)c5[nH]c(=O)sc45)CC3)C2)cs1` [Example 219, (R)-4-hydroxy-7-(1-hydroxy-2-(9-(4-(2-propylthiazole-4-carbonyl)-1-oxa-4,9-diazaspiro[5.5]undecan-9-yl)nonylamino)ethyl)benzo[d]thiazol-2(3H)-one] was tested, and the EC50 [1] was 50.1 nM, the “β2 Intrinsic activity” value [1] was 0.8 and the IC50 [2] was 1 nM. It also gave an activation at 1 µM [3] of 92% and an inhibition at 1 µM [4] of 99%.

`CC(C)(C)CC(=O)N1CCOC2(CCN(Cc3cc(F)cc(CCNC[C@H](O)c4ccc(O)c5[nH]c(=O)sc45)c3)CC2)C1` [Example 130, (R)-7-(2-(3-((4-(3,3-dimethylbutanoyl)-1-oxa-4,9-diazaspiro[5.5]undecan-9-yl)methyl)-5-fluorophenethylamino)-1-hydroxyethyl)-4-hydroxybenzo[d]thiazol-2(3H)-one] was tested, and the EC50 [1] was 12.6 nM, the “β2 Intrinsic activity” value [1] was 1 and the IC50 [2] was 79.4 nM. For the same compound, the activation at 1 µM [3] was 109% and the inhibition at 1 µM [4] was 90%.

`Cc1ccc(C(=O)N2CCOC3(CCN(Cc4cc(F)cc(CCNC[C@H](O)c5ccc(O)c6[nH]c(=O)sc56)c4)CC3)C2)s1` [Example 118, (R)-7-(2-(3-fluoro-5-((4-(5-methylthiophene-2-carbonyl)-1-oxa-4,9-diazaspiro[5.5]undecan-9-yl)methyl)phenethylamino)-1-hydroxyethyl)-4-hydroxybenzo[d]thiazol-2(3H)-one] was tested, and the EC50 [1] was 6.31 nM, the “β2 Intrinsic activity” value [1] was 1 and the IC50 [2] was 20 nM. It also gave an activation at 1 µM [3] of 101% and an inhibition at 1 µM [4] of 95%.

`O=C(c1ccc(Cl)s1)N1CCOC2(CCN(CCCCCCCCCNC[C@H](O)c3ccc(O)c4[nH]c(=O)sc34)CC2)C1` [Example 190, (R)-7-(2-(9-(4-(5-chlorothiophene-2-carbonyl)-1-oxa-4,9-diazaspiro[5.5]undecan-9-yl)nonylamino)-1-hydroxyethyl)-4-hydroxybenzo[d]thiazol-2(3H)-one] was tested, and the EC50 [1] was 12.6 nM, the “β2 Intrinsic activity” value [1] was 0.9 and the IC50 [2] was 2 nM. For the same compound, the activation at 1 µM [3] was 77% and the inhibition at 1 µM [4] was 99%.
